Measurements taken from EP2386552A1, “Process for the preparation of (R) a-lipoic acid salts, their formulation and use in pharmaceutical compositions, in form of tablets containing them” (priority 2010, dated 2011).

Key:
Powder apparent density = assay type: physicochemical; details: in g/mL
Description: As solvents, 1-4 carbon atom aliphatic alcohols are used, having linear or branched chain, pure or denaturated by usual denaturants, optionally in a mixture with water or among them or with the mother liquors coming from a previous production cycle that used the same raw materials. The use of ketones, like acetone, as such, (Ex.7, 9) or in a mixture with some of the above mentioned alcohols (Ex.11, 12), produces an amorphous precipitate not suitable to be utilized for the direct compression because of the powder very low density. For industrial purpose a powder having low density (<0,2 g/mL) requires an additional operation (compactation / dry granulation / humid granulation) to produce tablets.

[1] = pH of 1 % solution in water; assay type: physicochemical
[2] = Release test of tablets (Eur. Ph. 2.9.3, blade stirrer, artificial gastric buffer without pepsin); assay type: physicochemical; details: tablets containing the salt; compared with tablets containing other known salts
Description: The release test was carried out according to Eur. Ph. 2.9.3 with a blade stirrer (100 rpm) in 1000 mL of artificial gastric buffer without pepsin (Eur. […] The title is carried out by drawing 10 mL of medium, filtering on paper then evaluating the acid content by the spectrophotometer at the wavelength of 330 nm versus standard. The tablet hardness (N) is evaluated by a Schleuninger 6D durometer. The compression force was settled to obtain three intervals of tablet hardness: 40-90 N; 90-120Ne> […]. Table 2 : release of (R) α-lipoic acid tablet

[3] = Absorption and bioavailability of tablets; assay type: in vivo; details: formulated in tablet; compared with the corresponding tromethamine salt and lipoic acid as a racemate at equivalent doses

Row | Compound | Powder apparent density (Powder apparent density) | pH 1 % in water [1] | dissolution profile [2] | absorption and bioavailability [3]
1 | O=C(O)CCCC[C@@H]1CCSS1 [Ex. 8, Piperazine (R) α-lipoato (2:1)] | 0.5-0.6 | 5.5 | dissolution profile better | better absorption and bioavailability
2 | O=C(O)CCCC[C@@H]1CCSS1 [Ex. 6, Cystamine (R) α-lipoate] |  | 6.6 | dissolution profile better | 
3 | O=C(O)CCCC[C@@H]1CCSS1 [Ex. 12, Piperazine (R) α-lipoate (1:1)] |  | 7.2 |  | 
4 | O=C(O)CCCC[C@@H]1CCSS1 [Ex. 1, Trometamol (R) α-lipoate, reference compound] | 0.5-0.7 | 6.6 |  | 
5 | O=C(O)CCCC[C@@H]1CCSS1 [Ex. 7, Diazobicyclo [2,2,2] octane (R) α-lipoate] | 0.4-0.6 | 5.2 | dissolution profile better | 
